Data on six compounds can be found in publication PMC7053747 (PLoS ONE, 2020).

Where only a bound is given, the exact number is not on record here.

Chain of delta opioid receptor (P41143 whole entry): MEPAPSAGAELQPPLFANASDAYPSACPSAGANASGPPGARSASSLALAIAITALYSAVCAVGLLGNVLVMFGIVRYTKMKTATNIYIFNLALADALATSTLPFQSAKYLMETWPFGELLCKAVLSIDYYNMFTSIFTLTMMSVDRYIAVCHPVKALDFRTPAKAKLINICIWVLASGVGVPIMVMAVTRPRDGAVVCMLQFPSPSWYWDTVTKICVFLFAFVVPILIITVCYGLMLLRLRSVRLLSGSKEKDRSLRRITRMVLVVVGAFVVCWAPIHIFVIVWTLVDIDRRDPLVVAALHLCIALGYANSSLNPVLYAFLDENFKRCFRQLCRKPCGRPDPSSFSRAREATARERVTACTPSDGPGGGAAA
Chain of mu opioid receptor (Homo sapiens, UniProt P35372) (P35372 whole entry): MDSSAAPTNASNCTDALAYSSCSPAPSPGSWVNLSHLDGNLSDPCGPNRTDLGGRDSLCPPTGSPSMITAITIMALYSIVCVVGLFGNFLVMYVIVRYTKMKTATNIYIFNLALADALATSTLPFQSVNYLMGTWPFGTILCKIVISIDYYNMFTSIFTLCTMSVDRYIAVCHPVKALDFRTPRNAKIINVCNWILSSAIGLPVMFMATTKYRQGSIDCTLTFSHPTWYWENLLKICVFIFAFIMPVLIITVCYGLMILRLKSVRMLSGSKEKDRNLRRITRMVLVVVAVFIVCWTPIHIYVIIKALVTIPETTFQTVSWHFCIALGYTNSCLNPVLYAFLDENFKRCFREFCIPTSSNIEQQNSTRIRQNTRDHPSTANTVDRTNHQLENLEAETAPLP

The target in one assay is T1, serotonin 5HT1A receptor (Homo sapiens, UniProt P08908).
T1 sequence (P08908 1-422): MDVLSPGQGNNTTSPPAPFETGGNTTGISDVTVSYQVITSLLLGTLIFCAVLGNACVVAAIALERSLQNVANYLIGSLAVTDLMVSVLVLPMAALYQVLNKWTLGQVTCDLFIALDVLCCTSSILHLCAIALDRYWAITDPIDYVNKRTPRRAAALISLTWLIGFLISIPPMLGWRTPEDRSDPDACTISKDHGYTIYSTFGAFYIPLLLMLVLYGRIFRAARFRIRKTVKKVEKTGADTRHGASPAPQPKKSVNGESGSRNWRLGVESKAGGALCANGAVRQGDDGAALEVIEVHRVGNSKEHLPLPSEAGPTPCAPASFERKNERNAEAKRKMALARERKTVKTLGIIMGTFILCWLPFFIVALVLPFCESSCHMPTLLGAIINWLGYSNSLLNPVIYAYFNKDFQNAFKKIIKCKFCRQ
Put plainly: biochemical.
Settings: not given
The format is binding.
Take `COC(=O)C1=CO[C@@H](C)[C@@H]2CN3CCc4c([nH]c5ccccc45)[C@@H]3C[C@H]12` [Compound 12, Tetrahydroalstonine]: the Ki was 0.38 µM.

The same assay, now with this note: read-out: Ki.
As to Mitragynine [Compound 1], the Ki stood at 5.8 µM.

Take `CC[C@H]1CN2CCc3c([nH]c4cccc(OC)c34)[C@@H]2C[C@@H]1/C(=C\OC)C(=O)OC` [Compound 2, Speciogynine]: the Ki came out at 0.54 µM.

Turning to `CC[C@@H]1CN2CC[C@@]3(O)C(=Nc4cccc(OC)c43)[C@@H]2C[C@@H]1/C(=C\OC)C(=O)OC` [Compound 7, 7-Hydroxymitragynine], the Ki is above 10 µM.

The next assay concerns the target T2, adrenergic alpha2A receptor (Homo sapiens, UniProt P08913).
T2 sequence (P08913 1-465): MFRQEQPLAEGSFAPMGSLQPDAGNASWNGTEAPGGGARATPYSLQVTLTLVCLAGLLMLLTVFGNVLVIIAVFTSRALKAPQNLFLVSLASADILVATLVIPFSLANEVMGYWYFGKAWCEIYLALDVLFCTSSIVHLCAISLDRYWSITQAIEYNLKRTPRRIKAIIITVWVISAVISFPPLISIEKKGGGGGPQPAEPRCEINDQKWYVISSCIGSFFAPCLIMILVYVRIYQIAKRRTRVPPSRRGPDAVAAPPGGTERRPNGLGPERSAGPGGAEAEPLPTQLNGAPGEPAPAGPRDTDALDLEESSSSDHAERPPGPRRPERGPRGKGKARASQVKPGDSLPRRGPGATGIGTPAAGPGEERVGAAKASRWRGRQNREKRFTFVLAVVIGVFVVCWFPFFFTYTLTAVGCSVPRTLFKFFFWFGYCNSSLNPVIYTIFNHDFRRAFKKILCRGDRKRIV
The assay is described as follows: biochemical. It is filed as binding.
Settings: not given
With `COC(=O)C1=CO[C@@H](C)[C@@H]2CN3CCc4c([nH]c5ccccc45)[C@@H]3C[C@H]12` [Compound 12, Tetrahydroalstonine], the Ki turned out to be 0.018 µM.

Still in this assay, the particulars now being: read-out: Ki.
With Mitragynine [Compound 1], the Ki was 2.3 µM.

For `CC[C@H]1CN2CCc3c([nH]c4cccc(OC)c34)[C@@H]2C[C@@H]1/C(=C\OC)C(=O)OC` [Compound 2, Speciogynine], the Ki was found to be 0.36 µM.

Turning to `CC[C@@H]1CN2CC[C@@]3(O)C(=Nc4cccc(OC)c43)[C@@H]2C[C@@H]1/C(=C\OC)C(=O)OC` [Compound 7, 7-Hydroxymitragynine], the Ki is above 10 µM.

The target of a further assay is T3, serotonin 5HT2A receptor (Homo sapiens, UniProt P28223).
T3 construct: host or cells: transient HEKT cells (ATCC CRL-11268)
T3 sequence (P28223 whole entry): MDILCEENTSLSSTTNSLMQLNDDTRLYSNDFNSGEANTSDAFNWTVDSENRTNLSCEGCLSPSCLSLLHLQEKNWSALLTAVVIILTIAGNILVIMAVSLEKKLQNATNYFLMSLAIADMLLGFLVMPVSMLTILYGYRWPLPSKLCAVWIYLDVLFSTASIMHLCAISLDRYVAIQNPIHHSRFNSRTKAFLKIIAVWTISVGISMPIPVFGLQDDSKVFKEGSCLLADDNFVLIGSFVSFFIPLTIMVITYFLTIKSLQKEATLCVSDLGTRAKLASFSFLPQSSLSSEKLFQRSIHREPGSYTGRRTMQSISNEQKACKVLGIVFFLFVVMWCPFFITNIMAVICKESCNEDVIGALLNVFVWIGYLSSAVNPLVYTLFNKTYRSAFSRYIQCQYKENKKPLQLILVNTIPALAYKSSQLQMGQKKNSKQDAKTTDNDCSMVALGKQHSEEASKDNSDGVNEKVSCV
Put plainly: biochemical. It is filed as binding.
Settings: not given
`COC(=O)C1=CO[C@@H](C)[C@@H]2CN3CCc4c([nH]c5ccccc45)[C@@H]3C[C@H]12` [Compound 12, Tetrahydroalstonine] showed a Ki of 2.6 µM.

The same assay, now with this note: read-out: Ki.
Consider Mitragynine [Compound 1], for which the Ki was 7.3 µM.

Turning to `CC[C@H]1CN2CCc3c([nH]c4cccc(OC)c34)[C@@H]2C[C@@H]1/C(=C\OC)C(=O)OC` [Compound 2, Speciogynine], the Ki was 2.9 µM.

For `CC[C@@H]1CN2CC[C@@]3(O)C(=Nc4cccc(OC)c43)[C@@H]2C[C@@H]1/C(=C\OC)C(=O)OC` [Compound 7, 7-Hydroxymitragynine], the Ki was above 10 µM.

For another assay, the system named is human mu opioid receptor.
Experiment: not given
The settings on record: cited from earlier work.
Consider Mitragynine [Compound 1], for which the “functional activity (BRET)” value is reported as “partial agonist”.

The next assay addresses mu opioid receptor.
Experiment: not given
The settings on record: cited from earlier work.
Turning to `CCC(=O)O[C@](Cc1ccccc1)(c1ccccc1)[C@H](C)CN(C)C` [propoxyphene], the Ki is 0.12 µM.

Consider `CCOC(=O)C1(c2ccccc2)CCN(CCC(C#N)(c2ccccc2)c2ccccc2)CC1` [diphenoxylate], for which the Ki was 0.0124 µM.

The next assay concerns the target mu opioid receptor (Homo sapiens, UniProt P35372). Put plainly: biochemical. It is filed as binding.
Settings: not given
In the case of `COC(=O)C1=CO[C@@H](C)[C@@H]2CN3CCc4c([nH]c5ccccc45)[C@@H]3C[C@H]12` [Compound 12, Tetrahydroalstonine], the Ki is above 10 µM.

The target of another assay is kappa opioid receptor (Homo sapiens, UniProt P41145). The assay is described as follows: biochemical. The format is binding.
Chain of kappa opioid receptor (P41145 whole entry): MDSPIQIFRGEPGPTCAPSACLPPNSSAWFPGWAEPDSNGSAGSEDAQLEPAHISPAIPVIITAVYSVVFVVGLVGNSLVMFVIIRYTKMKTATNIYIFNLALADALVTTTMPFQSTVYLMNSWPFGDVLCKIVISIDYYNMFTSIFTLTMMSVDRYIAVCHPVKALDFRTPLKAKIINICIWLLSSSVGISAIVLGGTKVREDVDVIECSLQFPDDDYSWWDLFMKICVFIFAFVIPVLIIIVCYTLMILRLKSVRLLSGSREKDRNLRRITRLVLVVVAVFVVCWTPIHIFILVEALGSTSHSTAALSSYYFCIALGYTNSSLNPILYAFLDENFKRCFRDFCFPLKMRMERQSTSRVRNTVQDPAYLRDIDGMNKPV
Settings: not given
In turn, `COC(=O)C1=CO[C@@H](C)[C@@H]2CN3CCc4c([nH]c5ccccc45)[C@@H]3C[C@H]12` [Compound 12, Tetrahydroalstonine] showed a Ki above 10 µM.

Staying with this assay, now noted: read-out: Ki.
Mitragynine [Compound 1]: the Ki was found to be 1.3 µM.

`CC[C@H]1CN2CCc3c([nH]c4cccc(OC)c34)[C@@H]2C[C@@H]1/C(=C\OC)C(=O)OC` [Compound 2, Speciogynine]: the Ki came to 3.6 µM.

Regarding `CC[C@@H]1CN2CC[C@@]3(O)C(=Nc4cccc(OC)c43)[C@@H]2C[C@@H]1/C(=C\OC)C(=O)OC` [Compound 7, 7-Hydroxymitragynine], the Ki worked out at 0.32 µM.

A further assay deals with T4, adrenergic alpha2C receptor (Homo sapiens, UniProt P18825).
T4 sequence (P18825 1-462): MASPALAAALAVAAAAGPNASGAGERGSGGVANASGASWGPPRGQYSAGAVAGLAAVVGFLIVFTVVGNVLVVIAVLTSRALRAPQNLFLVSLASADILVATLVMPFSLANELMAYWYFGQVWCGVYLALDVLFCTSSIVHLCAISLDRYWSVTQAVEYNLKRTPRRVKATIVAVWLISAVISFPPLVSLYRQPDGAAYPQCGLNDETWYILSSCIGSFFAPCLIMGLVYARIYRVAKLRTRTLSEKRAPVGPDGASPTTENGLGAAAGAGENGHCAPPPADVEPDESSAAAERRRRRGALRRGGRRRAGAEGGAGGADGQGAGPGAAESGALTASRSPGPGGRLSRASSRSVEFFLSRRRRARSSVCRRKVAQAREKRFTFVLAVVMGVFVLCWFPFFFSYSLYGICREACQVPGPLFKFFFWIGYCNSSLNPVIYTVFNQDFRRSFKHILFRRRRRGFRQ
The assay is described as follows: biochemical.
Settings: not given
It is filed as binding.
The compound `COC(=O)C1=CO[C@@H](C)[C@@H]2CN3CCc4c([nH]c5ccccc45)[C@@H]3C[C@H]12` [Compound 12, Tetrahydroalstonine] registered a Ki of 0.053 µM.

Staying with this assay, now noted: read-out: Ki.
With Mitragynine [Compound 1], the Ki amounted to 3.5 µM.

Take `CC[C@H]1CN2CCc3c([nH]c4cccc(OC)c34)[C@@H]2C[C@@H]1/C(=C\OC)C(=O)OC` [Compound 2, Speciogynine]: the Ki worked out at 0.68 µM.

As to `CC[C@@H]1CN2CC[C@@]3(O)C(=Nc4cccc(OC)c43)[C@@H]2C[C@@H]1/C(=C\OC)C(=O)OC` [Compound 7, 7-Hydroxymitragynine], the Ki is above 10 µM.

In another assay the target is T5, adrenergic alpha2B receptor (Homo sapiens, UniProt P18089).
T5 construct: host or cells: transient HEKT cells
T5 sequence (P18089 1-450): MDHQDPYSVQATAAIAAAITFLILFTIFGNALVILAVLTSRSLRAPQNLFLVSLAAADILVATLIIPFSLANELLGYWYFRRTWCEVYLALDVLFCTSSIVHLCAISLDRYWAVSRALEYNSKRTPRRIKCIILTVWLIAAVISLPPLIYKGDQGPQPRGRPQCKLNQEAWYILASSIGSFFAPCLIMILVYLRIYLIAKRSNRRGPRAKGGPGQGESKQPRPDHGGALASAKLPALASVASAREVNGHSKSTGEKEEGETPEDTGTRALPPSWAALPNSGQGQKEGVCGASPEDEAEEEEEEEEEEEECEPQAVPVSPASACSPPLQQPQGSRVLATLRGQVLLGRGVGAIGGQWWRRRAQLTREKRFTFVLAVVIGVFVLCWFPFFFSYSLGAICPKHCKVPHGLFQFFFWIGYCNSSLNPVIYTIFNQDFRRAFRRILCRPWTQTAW
The assay is described as follows: biochemical. It is filed as binding.
Settings: not given
Consider `COC(=O)C1=CO[C@@H](C)[C@@H]2CN3CCc4c([nH]c5ccccc45)[C@@H]3C[C@H]12` [Compound 12, Tetrahydroalstonine], for which the Ki amounted to 0.04 µM.

Still in this assay, the particulars now being: read-out: Ki.
Consider Mitragynine [Compound 1], for which the Ki stood at 4.9 µM.

Turning to `CC[C@H]1CN2CCc3c([nH]c4cccc(OC)c34)[C@@H]2C[C@@H]1/C(=C\OC)C(=O)OC` [Compound 2, Speciogynine], the Ki was 2.6 µM.

Regarding `CC[C@@H]1CN2CC[C@@]3(O)C(=Nc4cccc(OC)c43)[C@@H]2C[C@@H]1/C(=C\OC)C(=O)OC` [Compound 7, 7-Hydroxymitragynine], the Ki was above 10 µM.

A further assay concerns rodent mu opioid receptors.
Experiment: not given
The settings on record: cited from earlier work.
As for Mitragynine [Compound 1], the “functional activity (BRET)” value was “competitive antagonist”.

For another assay, the target named is mouse opioid receptor.
Experiment: not given
The settings on record: read-out: binding affinity; cited from earlier work.
As for `CC[C@H]1CN2CCc3c([nH]c4cccc(OC)c34)[C@@H]2C[C@@H]1/C(=C\OC)C(=O)OC` [Compound 2, Speciogynine], the Ki is below 10 µM.

The next assay has as its target delta opioid receptor (Homo sapiens, UniProt P41143). The assay is described as follows: biochemical. The format is binding.
Settings: not given
`COC(=O)C1=CO[C@@H](C)[C@@H]2CN3CCc4c([nH]c5ccccc45)[C@@H]3C[C@H]12` [Compound 12, Tetrahydroalstonine] came in with a Ki above 10 µM.

The assay is the same for the next values; noted with them: read-out: Ki.
Turning to Mitragynine [Compound 1], the Ki turned out to be 6.5 µM.

On to `CC[C@H]1CN2CCc3c([nH]c4cccc(OC)c34)[C@@H]2C[C@@H]1/C(=C\OC)C(=O)OC` [Compound 2, Speciogynine], for which the Ki was above 10 µM.

`CC[C@@H]1CN2CC[C@@]3(O)C(=Nc4cccc(OC)c43)[C@@H]2C[C@@H]1/C(=C\OC)C(=O)OC` [Compound 7, 7-Hydroxymitragynine]: the Ki was found to be 0.47 µM.
